# Patent publication US11650214B2, “Proteins of the WNT signaling pathway and uses thereof in the diagnostic and treatment of hypopigmentation disorders” (INSERM (INSTITUT NATIONAL DE LA SANTÉ ET DE LA RECHERCHE …, priority 2014, dated 2023)
# Experiments:
# Type in all cases: cell-based, human
# [1] = tested on: WNT pathway in lesional skin from vitiligo patients; test: Ex vivo culture of lesional vitiligo skin biopsies with WNT pathway activators, RT-qPCR; conditions: 14 days, SKL2001 40 μM; for mRNA level of early melanoblast marker Brn2 / mRNA level of early melanoblast marker PAX3 / relative mRNA expression of LEF / relative mRNA expression of WNT family: CHIR99021 3 μM, LiCl 20 μM; for relative mRNA expression of LEF / relative mRNA expression of WNT family: stimulation every other day, n=9
# Experimental: (§1) Vitiligo patients (n=9) were biopsied in lesional skin area. The biopsies were stimulated in ex vivo culture during 14 days with GSK3β inhibitor: CHIR99021 (3 μM) or LiCl (20 μM) or with WNT agonist: SKL2001 (40 μM) every other day. mRNA was extracted and a RT-qPCR was performed to quantify the relative expression of LEF (A) and the pre-melanocytes markers PAX3 (B), Brn2 (C) MITF (D) and DCT (E).
# as §1, with “WNT family” for “LEF (A) and the pre-melanocytes markers PAX3 (B), Brn2 (C) MITF (D) and DCT (E).”
# For vitiligo skin biopsies, after verification of the absence of melanocytes with Wood's lamp, two or three 6 mm biopsies composed of dermis plus epidermis were taken into lesional skin from vitiligo patients (n=9). The biopsies are rapidly put on transwell chamber of 0.4 μm (Becton Dickinson) and kept on semi liquid culture conditions in “Skin long term culture medium” (Biopredic). The skin was maintained at 37° C. in a wet 5% CO2 atmosphere.
# The culture medium supplemented with Forskolin (Sigma Aldrich), LiCl (Sigma Aldrich), CHIR99021 (Calbiochem) or SKL2001 (Calbiochem) was changed […] during 14 days.
# mRNA from melanocytes and keratinocytes was extracted with RNeasy kit (Qiagen). The biopsies are cut and disrupted with tissue ruptor (Qiagen) and the mRNA was extracted with RNeasy kit (Qiagen). cDNA were synthesized from 300 ng to 1 μg of mRNA with the Reverse Transcription System (Promega). Relative quantification of gene expression was measured by real time qPCR with Sybr green reagent (Life technology) on Step one system.
# In order to induce the differentiation of melanocyte stem cells, they pharmacologically activated the WNT pathway in vitiligo skin cultured ex vivo as shown previously. They used two methods to activate the WNT pathway: a WNT agonist (SKL2001) and two GSK3β inhibitors: lithium chloride (LiCl) and a commercial specific inhibitor (CHIR99021). They biopsied 9 vitiligo subjects (6 mm punch) on diverse body locations ([…], 2 on trunk, 2 on leg, 1 on arm and 1 on axilla) and treated the ex vivo culture model during 14 days with a systemic stimulation every other day with the WNT activators.
# They evaluated the activation of WNT pathway by the mRNA level of WNTs (TCF/LEF1 and the melanogenesis pathway by the mRNA level of MITF, DCT, PAX3 and BRn2) within the skin. Treatments with LiCl, CHIR99021 and SKL2001 induce an increase of all WNT and LEF after 14 days of stimulation (FIG. 6A and FIG. 11).
# NHK (keratinocytes) = test: Oxidative stress (H2O2) in NHK, qPCR of LEF1 and WNT family; conditions: 24 hours
# Experimental: (§2) NHM (A) and NHK (B) and whole skin in ex vivo culture (C) were stimulated 24 hours with 25 to 100 μM of H2O2. After mRNA extraction, a reverse transcription was performed and the relative gene expression of LEF1 was analyzed with qPCR.
# (§3) (A) NHM, (B) NHK and (C) whole skin in ex vivo culture were stimulated 24 hours with 25 to 100 μM of H2O2. After mRNA extraction, a reverse transcription was performed and the relative gene expression of WNT family was analyzed with qPCR.
# (§4) NHMs and NHKs are obtained from the foreskin of phototype IV children as described previously. Briefly, epidermal cells are obtained by overnight digestion of the skin in a dispase solution (Roche) at 4° C. followed by the digestion of the epidermis in a trypsin/EDTA solution during 20 minutes at 37° C. […]
# (§5) mRNA from melanocytes and keratinocytes was extracted with RNeasy kit (Qiagen). […] Relative quantification of gene expression was measured by real time qPCR with Sybr green reagent (Life technology) on Step one system.
# (§6) Since the WNT pathway, implicated in melanocytes differentiation, seems to be affected in vitiligo skin, inventors tried to determine the element—known to be involved in vitiligo—responsible for this dysregulation. […] They induced an oxidative stress with H2O2 in melanocytes and keratinocytes and analyzed the expression of LEF and WNT family. […]
# NHM (melanocytes) = test: Oxidative stress (H2O2) in NHM, qPCR of LEF1 and WNT family; conditions: 24 hours
# Experimental: as §2, §3, §4, §5, §6
# [2] = tested on: whole skin in ex vivo culture; test: Oxidative stress (H2O2) in whole skin in ex vivo culture, qPCR of LEF1 and WNT family; conditions: whole skin biopsies ex vivo, 24 hours, 25 to 100 μM H2O2
# Experimental: as §2, §3
# Skin from abdominoplasty surgery was used to the development of the ex vivo skin culture model. The subcutaneous fat was removed and biopsies of 6 mm were done in the skin composed of dermis and epidermis.
# as §5, §6
# [3] = 25 to 100 μM H2O2, majority of WNT
compound,measurement,setting,value
Cc1c[nH]c(-c2cnc(NCCNc3ccc(C#N)cn3)nc2-c2ccc(Cl)cc2Cl)n1 [CHIR99021],mRNA level of early melanoblast marker Brn2,[1],up-regulated
same,mRNA level of early melanoblast marker PAX3,[1],up-regulated
same,relative mRNA expression of LEF,[1],increase
same,relative mRNA expression of WNT family,[1],increase
OO [H2O2],expression of LEF,NHK (keratinocytes); 25 to 100 μM H2O2,decreased
same,expression of WNT family,NHK (keratinocytes); [3],decreased
same,expression of LEF,NHM (melanocytes); 25 to 100 μM H2O2,decreased
same,expression of WNT family,NHM (melanocytes); [3],decreased
same,expression of LEF,[2],decrease expression
same,expression of WNT family,[2]; most of the WNT family,decrease expression
O=C(NCCCn1ccnc1)c1cc(-c2ccco2)on1 [SKL2001],mRNA level of early melanoblast marker Brn2,[1],up-regulated
same,mRNA level of early melanoblast marker PAX3,[1],up-regulated
same,mRNA level of MITF,[1],increased
same,relative mRNA expression of LEF,[1],increase
same,relative mRNA expression of WNT family,[1],increase
